# Test results as given in US11339158B2, “Crystalline form of valbenazine ditosylate, processes for preparation thereof and use thereof” (Crystal Pharmaceutical (Suzhou) Co., Ltd., priority 2017, dated 2022).
# “Also recorded” adds a separate entry of the source. Read-outs that look alike come from different tables or passages of the source.
# Columns and labels:
# Type in all cases: physicochemical
# [1] = Compressibility (tensile strength); conditions: Φ6 mm round tooling, 80 mg, 10 kN; for Tensile strength (MPa): T=2H/πDL; for Diameter (mm) / Thickness (mm): after 24 h
# Method: A manual tablet press was used for compression. A certain amount of Form A and prior art Form I were added into the dies of round tooling (Ensuring the isotropy of the tablet), compressed at suitable pressure, and then stored at room temperature for 24 h until complete elastic recovery. Hardness (H) was tested with Intelligent Tablet Hardness Tester. Diameter (D) and thickness (L) were tested with caliper. Tensile strength of the powder was calculated with the following formula: T=2H/πDL. Under a certain force, the greater the tensile strength, the better the compressibility.
# [2] = Mechanical stability (tableting at 15 kN, XRPD); conditions: compressed at 15 kN, held 1 minute
# Method: About 0.1 g of Form A was added into a die, compressed at 15 kN, and held for 1 minute. And then the pressure was released and the sample in the die was taken out for XRPD test. […] The XRPD pattern is substantially as depicted in FIG. 9.
# [3] = Stability of Form A drug substance (XRPD and HPLC); conditions: for Change in solid form: XRPD; for Change in purity %: HPLC
# Method: Four samples of Form A in the present disclosure was stored under different conditions of 25° C./60% RH in open and closed dishes for 3 months, 40° C./75% RH in closed dish for 3 months and 60° C./75% RH in closed dish for 1 week. Crystalline form and chemical impurity were checked by XRPD and HPLC, respectively.
# [4] = Crystalline form after formulation process (XRPD of capsule); conditions: Form A in capsule
# Method: The preparation process is described in Table 8.
# The crystalline form of Form A in capsule was tested by XRPD. […] The XRPD pattern is substantially as depicted in FIG. 10.
# [5] = Adhesiveness (material sticking to the punch); conditions: for Cumulative amount (mg) sticking to the punch / Maximum amount (mg) sticking to the punch: 30 mg, φ8 mm round tooling, 10 kN, 30 s, repeated compression
# Method: 30 mg of Form A and Form I in prior art were added into the dies of φ8 mm round tooling, compressed at 10 kN and held for 30 s. The punch was weighed and amount of material sticking to the punch was calculated. The compression was repeated several times to record the cumulative amount, maximum amount and average amount of material sticking to the punch during compression process.
# [6] = Hygroscopicity (Chinese Pharmacopoeia 2015, general notice 9103); conditions: for Percentage gain (weight gain, hygroscopicity): 25±1° C., relative humidity 80%±2%, 24 hours
# Method: The hygroscopicity experiment was conducted according to general notice 9103 drug hygroscopicity test guidelines in 2015 edition of Chinese Pharmacopoeia. The methods are listed as follows: • 1. A dry weighing bottle with a stopper (outer diameter is 50 mm and the height is 15 mm) was placed in a suitable desiccator at constant temperature of 25±1° C. (saturated solution of ammonium chloride or ammonium sulfate was placed in the lower compartment) or the a man-made climate chamber (the temperature is set as 25°±C. 1° C. and the relative humidity is 80%±2%) the day before the test. The weight is accurately weighed (m1). • 2. A suitable amount of the sample was spread into the weighing bottle. The thickness of the sample is generally about 1 mm, and the weight is accurately weighed (m2). • 3. The weighing bottle was kept open and placed under the same constant temperature and humidity mentioned above for 24 hours as well as the stopper. • 4. T The stopper was put on the weighing bottle, and then the weighing bottle with stopper was accurately weighed (m3).
# The hygroscopicity of Form A in the present disclosure and Form I in prior art was tested.
# [7] = Kinetic solubility in FaSSIF and FeSSIF; conditions: for solubility kinetic at 15 min / solubility kinetic at 30 min / solubility kinetic at 1 h: thermodynamic from solid, read-out: Kinetic solubility (concentration of saturated solution); for Kinetic solubility (concentration of saturated solution): listed as Prior art Form I
# Method: High Performance Liquid Chromatography (HPLC) data in the present disclosure were collected from an Agilent 1260 with Diode Array Detector (DAD).
# The HPLC method parameters for solubility test and dissolution tests in the present disclosure are as follows: • 1. Column: Waters XBridge C18 150×4.6 mm, 5 μm • 2. Mobile Phase: A: 0.1% TFA in H2O • B: 0.1% TFA in Acetonitrile
# • 3. Flow rate: 1.0 mL/min • 4. Injection Volume: 10 μL • 5. Detection wavelength: 230 nm • 6. Column Temperature: 40° C. • 7. Diluent: Acetonitrile: H2O (v:v)=50:50
# Simulated intestinal fluids, such as FaSSIF (fasted state simulated intestinal fluids) and FeSSIF (fed state simulated intestinal fluids) are biorelevant media. These media can better reflect the drug release affected by gastrointestinal environment. Solubility in such media is close to in vivo solubility.
# 20 mg of Form A in the present disclosure and 20 mg of prior art Form I were suspended in 1.5 mL of FaSSIF and 1.5 mL of FeSSIF to get saturated solutions. After equilibrium for 15 minutes, 30 minutes and 1 hour, concentrations of the saturated solutions (mg/mL) were measured by HPLC.
# [8] = Flowability (compressibility index / Carr Index); conditions: for Carr Index: c=(ρf−ρ0)/ρf; for Flowability: criteria of ICH Q4B Annex 13
# Method: Compressibility index or Carr Index is usually utilized to evaluate the flowability of powder and granules during the drug product process. Compressibility index test method is as follows: a certain amount of powder was added into a measuring cylinder and bulk volume was recorded. Then the powder was tapped to make it in the tightest state and the tapped volume was recorded. The bulk density (ρ0), tapped density (ρf) were calculated and compressibility index was calculated according to c=(ρf−ρ0)/ρf.
# [9] = 25° C./60% RH in open dish, 3 months
# [10] = 40° C./75% RH in closed dish, 3 months
# [11] = 60° C./75% RH in closed dish, 1 week
smiles,measurement,setting,value
"COc1cc2c(cc1OC)[C@H]1C[C@@H](OC(=O)[C@@H](N)C(C)C)[C@H](CC(C)C)CN1CC2 [Form A, (S)-2-amino-3-methyl-butyric acid (2R,3R,11bR)-3-isobutyl-9,10-dimethoxy-1,3,4,6,7,11b-hexahydro-2H-pyrido[2,1-a]isoquinolin-2-yl ester]",Tensile strength (MPa),[1],1.36 MPa
same,Diameter (mm),[1],6.11 mm
same,Thickness (mm),[1],2.33 mm
same,Form change after tableting,[2],doesn't change; also recorded: no form change is observed
same,Time physically and chemically stable,[3]; 25° C./60% RH in closed dish,at least 3 months
same,Change in solid form,"[3]; 25° C./60% RH in closed dish, 3 months",doesn't change; also recorded: No form change
same,Time physically and chemically stable,[3]; 25° C./60% RH in open dish,at least 3 months
same,Change in purity %,[3]; [9],0.03%
same,Change in solid form,[3]; [9],doesn't change; also recorded: No form change
same,Time physically and chemically stable,[3]; 40° C./75% RH in closed dish,at least 3 months
same,Change in purity %,[3]; [10],0.09%
same,Change in solid form,[3]; [10],doesn't change; also recorded: No form change
same,Time stable,[3]; 60° C./75% RH in closed dish,at least 1 week
same,Change in purity %,[3]; [11],0.08%
same,Change in solid form,[3]; [11],doesn't change; also recorded: No form change
same,Form change of Form A after formulation process,[4],no form change was observed; also recorded: doesn't change
same,Cumulative amount (mg) sticking to the punch,[5],0.06 mg
same,Maximum amount (mg) sticking to the punch,[5],0.17 mg
same,Hygroscopicity relative to prior art form,[6]; Chinese Pharmacopoeia hygroscopicity test,3/5
same,solubility kinetic at 15 min,"[7]; FaSSIF, FaSSIF, 15 minutes",31.4 mg/mL
same,solubility kinetic at 30 min,"[7]; FaSSIF, FaSSIF, 30 minutes",31.3 mg/mL
same,solubility kinetic at 1 h,"[7]; FaSSIF, FaSSIF, 1 hour",31.8 mg/mL
same,Solubility of Form A relative to prior art Form I,[7]; FeSSIF,1.23 times
same,solubility kinetic at 15 min,"[7]; FeSSIF, FeSSIF, 15 minutes",41.9 mg/mL
same,solubility kinetic at 30 min,"[7]; FeSSIF, FeSSIF, 30 minutes",41.7 mg/mL
same,solubility kinetic at 1 h,"[7]; FeSSIF, FeSSIF, 1 hour",41.3 mg/mL
same,Bulk density,[8],0.179 g/mL
same,Tap density,[8],0.209 g/mL
same,Carr Index,[8],14%
same,Flowability,[8],Good (11-15)
"COc1cc2c(cc1OC)[C@H]1C[C@@H](OC(=O)[C@@H](N)C(C)C)[C@H](CC(C)C)CN1CC2 [Form I, (S)-2-amino-3-methyl-butyric acid (2R,3R,11bR)-3-isobutyl-9,10-dimethoxy-1,3,4,6,7,11b-hexahydro-2H-pyrido[2,1-a]isoquinolin-2-yl ester, reference compound]",Tensile strength (MPa),[1],0.86 MPa
same,Diameter (mm),[1],6.04 mm
same,Thickness (mm),[1],2.30 mm
same,"Maximum amount sticking to the punch, Form I relative to Form A",[5],more than 3 times
same,Cumulative amount (mg) sticking to the punch,[5],0.21 mg
same,Maximum amount (mg) sticking to the punch,[5],7.58 mg
same,"Percentage gain (weight gain, hygroscopicity)",[6]; listed as Form I in prior art,0.40%
same,"Percentage gain (weight gain, hygroscopicity)",[6]; listed as prior art Form I,0.40%
same,Kinetic solubility (concentration of saturated solution),"[7]; FaSSIF, 15 minutes",30.637 mg/mL
same,Kinetic solubility (concentration of saturated solution),"[7]; FaSSIF, 30 minutes",30.189 mg/mL
same,Kinetic solubility (concentration of saturated solution),"[7]; FaSSIF, 1 hour",31.010 mg/mL
same,Kinetic solubility (concentration of saturated solution),"[7]; FeSSIF, 15 minutes",34.054 mg/mL
same,Kinetic solubility (concentration of saturated solution),"[7]; FeSSIF, 30 minutes",34.628 mg/mL
same,Kinetic solubility (concentration of saturated solution),"[7]; FeSSIF, 1 hour",35.012 mg/mL
same,Bulk density,[8],0.144 g/mL
same,Tap density,[8],0.174 g/mL
same,Carr Index,[8],17%
same,Flowability,[8],Fair (16-20)
